≈ marks a conversion by molar mass, not a printed value.
test system: Liver microsomes; experiment: Inhibition of lipid peroxidation in rat liver microsomes; assay type: functional, Microsome

| IC50 [µg/mL] | Compound |
| --- | --- |
| 0.46 (≈ 1.44 µM) | COC1=C(c2ccccc2)C(=O)C(OC)=C(c2ccccc2)C1=O [BETULINAN A] |
| 2.88 (≈ 9.05 µM) | COC1=C(c2ccccc2)C(=O)C2=C(C1=O)c1ccccc1CO2 [BETULINAN B] |
| 1.68 | VITAMIN E |
